Measurements reported in patent US6458781B1, “Substituted diarylalkyl amides as calcium channel antagonists” (priority 1998, dated 2002).
Where a name gives a salt, the structure may show the parent alone. Read-outs that look alike come from different tables or passages of the source.

Assays:
[1] = biological target: T1, N-type calcium channels in IMR-32 cells (Homo sapiens, UniProt Q00975); experiment: N-type Ca2+ channel blocking potency in IMR-32 cells using Indo-1; assay type: cell-based; details: for IC50: IMR-32 cells
T1 construct: host or cells: IMR-32 cells differentiated with dibutyryl cAMP and bromodeoxyuridine
T1 sequence (Q00975 whole entry): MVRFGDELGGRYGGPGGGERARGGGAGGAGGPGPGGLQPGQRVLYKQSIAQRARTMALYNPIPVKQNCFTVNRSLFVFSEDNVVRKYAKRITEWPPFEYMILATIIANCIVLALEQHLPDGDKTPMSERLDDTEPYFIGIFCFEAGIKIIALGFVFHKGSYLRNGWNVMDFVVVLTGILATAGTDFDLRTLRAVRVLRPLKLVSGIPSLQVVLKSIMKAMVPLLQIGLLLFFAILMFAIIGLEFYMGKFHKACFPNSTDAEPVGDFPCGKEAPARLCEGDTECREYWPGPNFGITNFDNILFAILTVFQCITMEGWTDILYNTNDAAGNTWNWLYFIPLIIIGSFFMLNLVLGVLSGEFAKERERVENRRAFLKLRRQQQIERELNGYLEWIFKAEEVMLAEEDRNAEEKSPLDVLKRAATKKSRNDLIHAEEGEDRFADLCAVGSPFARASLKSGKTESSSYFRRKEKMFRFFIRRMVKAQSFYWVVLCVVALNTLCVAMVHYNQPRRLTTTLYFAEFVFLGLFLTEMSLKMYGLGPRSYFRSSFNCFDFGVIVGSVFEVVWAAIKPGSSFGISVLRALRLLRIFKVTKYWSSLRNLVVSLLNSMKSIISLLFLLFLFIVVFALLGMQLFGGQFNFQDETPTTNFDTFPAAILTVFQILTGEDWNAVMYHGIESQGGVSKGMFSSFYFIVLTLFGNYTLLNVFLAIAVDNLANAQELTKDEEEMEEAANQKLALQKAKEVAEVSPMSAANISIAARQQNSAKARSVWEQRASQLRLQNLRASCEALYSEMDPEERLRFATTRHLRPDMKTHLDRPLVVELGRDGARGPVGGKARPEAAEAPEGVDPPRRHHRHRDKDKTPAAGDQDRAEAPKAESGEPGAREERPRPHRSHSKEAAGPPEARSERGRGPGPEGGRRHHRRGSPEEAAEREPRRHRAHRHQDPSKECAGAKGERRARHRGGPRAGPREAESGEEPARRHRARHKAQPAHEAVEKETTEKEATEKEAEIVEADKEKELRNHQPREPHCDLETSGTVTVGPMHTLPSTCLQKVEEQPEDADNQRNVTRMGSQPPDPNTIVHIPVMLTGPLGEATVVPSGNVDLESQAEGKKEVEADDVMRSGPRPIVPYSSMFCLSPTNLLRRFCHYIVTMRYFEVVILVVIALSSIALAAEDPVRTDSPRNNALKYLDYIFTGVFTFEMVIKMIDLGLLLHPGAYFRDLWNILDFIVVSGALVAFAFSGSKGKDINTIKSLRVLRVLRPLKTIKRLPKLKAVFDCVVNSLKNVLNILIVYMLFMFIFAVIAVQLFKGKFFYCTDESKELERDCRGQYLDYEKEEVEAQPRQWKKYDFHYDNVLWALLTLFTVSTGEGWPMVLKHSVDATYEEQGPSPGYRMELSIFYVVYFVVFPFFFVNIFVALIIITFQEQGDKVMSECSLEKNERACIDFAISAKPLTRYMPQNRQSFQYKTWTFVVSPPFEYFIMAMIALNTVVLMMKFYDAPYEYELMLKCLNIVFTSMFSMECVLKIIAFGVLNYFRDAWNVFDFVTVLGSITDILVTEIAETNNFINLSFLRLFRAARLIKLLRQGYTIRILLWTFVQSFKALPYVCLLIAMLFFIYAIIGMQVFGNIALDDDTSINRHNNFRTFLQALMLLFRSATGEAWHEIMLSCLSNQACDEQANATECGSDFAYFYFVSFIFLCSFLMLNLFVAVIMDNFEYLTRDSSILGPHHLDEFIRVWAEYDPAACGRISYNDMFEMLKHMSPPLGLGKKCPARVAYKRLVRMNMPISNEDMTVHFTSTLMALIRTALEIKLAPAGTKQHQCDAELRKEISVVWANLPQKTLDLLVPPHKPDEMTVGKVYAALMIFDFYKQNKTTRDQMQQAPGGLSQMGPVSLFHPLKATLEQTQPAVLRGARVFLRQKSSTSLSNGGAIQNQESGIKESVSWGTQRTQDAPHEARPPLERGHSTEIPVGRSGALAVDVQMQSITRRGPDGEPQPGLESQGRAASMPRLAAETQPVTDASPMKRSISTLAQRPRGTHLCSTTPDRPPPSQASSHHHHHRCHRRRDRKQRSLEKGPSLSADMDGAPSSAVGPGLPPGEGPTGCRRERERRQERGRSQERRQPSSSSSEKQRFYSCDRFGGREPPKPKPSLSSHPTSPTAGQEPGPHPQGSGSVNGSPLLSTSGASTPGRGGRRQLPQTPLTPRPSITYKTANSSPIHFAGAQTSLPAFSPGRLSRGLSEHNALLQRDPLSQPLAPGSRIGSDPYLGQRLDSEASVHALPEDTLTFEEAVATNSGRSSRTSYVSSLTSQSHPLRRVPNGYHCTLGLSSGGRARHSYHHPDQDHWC
T1 sequence (P54289 25-956 partner limits assumed): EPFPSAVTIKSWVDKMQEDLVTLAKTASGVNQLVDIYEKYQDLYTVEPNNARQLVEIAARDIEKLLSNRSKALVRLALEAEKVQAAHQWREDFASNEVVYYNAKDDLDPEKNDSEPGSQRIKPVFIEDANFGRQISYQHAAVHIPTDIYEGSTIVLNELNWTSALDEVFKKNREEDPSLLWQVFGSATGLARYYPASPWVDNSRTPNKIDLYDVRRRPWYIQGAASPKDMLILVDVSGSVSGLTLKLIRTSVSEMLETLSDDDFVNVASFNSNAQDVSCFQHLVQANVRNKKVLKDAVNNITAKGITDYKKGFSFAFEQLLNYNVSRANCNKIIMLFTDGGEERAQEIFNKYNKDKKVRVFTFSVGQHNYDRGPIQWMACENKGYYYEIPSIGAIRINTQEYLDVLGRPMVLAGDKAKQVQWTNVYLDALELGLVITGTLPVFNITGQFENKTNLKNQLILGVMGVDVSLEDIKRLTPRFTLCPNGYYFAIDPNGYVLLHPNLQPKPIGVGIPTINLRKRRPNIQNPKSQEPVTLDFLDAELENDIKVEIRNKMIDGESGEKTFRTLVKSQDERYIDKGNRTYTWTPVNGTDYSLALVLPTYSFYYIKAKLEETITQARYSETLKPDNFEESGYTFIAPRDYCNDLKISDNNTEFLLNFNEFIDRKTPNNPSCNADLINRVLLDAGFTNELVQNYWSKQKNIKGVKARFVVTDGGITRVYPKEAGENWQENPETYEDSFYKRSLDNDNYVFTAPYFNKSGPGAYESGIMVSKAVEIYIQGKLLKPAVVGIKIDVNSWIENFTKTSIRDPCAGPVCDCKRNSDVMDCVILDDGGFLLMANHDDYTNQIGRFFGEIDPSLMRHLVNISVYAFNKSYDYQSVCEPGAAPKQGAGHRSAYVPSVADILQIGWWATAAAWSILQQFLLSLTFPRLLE
T1 sequence (P54289 957-1103 partner limits assumed): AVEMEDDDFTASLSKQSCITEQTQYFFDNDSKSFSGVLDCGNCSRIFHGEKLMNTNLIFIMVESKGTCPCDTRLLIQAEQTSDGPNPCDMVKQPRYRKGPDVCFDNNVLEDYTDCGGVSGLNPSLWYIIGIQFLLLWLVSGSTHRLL
T1 sequence (Q02641 whole entry partner): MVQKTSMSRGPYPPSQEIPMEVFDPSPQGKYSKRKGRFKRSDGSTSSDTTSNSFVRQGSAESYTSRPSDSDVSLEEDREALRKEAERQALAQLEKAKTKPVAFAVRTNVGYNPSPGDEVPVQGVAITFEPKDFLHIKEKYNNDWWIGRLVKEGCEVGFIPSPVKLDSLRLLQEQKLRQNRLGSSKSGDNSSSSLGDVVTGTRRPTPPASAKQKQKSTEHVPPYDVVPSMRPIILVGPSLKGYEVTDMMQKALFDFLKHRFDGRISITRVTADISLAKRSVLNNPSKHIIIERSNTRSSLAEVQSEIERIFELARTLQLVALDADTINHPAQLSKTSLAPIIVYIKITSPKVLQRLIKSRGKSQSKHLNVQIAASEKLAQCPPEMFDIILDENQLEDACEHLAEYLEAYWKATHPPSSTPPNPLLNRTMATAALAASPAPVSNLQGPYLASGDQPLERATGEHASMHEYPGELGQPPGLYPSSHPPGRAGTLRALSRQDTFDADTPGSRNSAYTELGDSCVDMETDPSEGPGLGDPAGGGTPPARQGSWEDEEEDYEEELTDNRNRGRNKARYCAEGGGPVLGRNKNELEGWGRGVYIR
In short: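 Differentiated IMR-32 cells loaded with Indo-1 AM were preincubated with compound and 5 μM nitrendipine (L-type block) for 10 min at 30° C in HEPES/Tris pH 7.4 HBSS with 0.5% BSA. Cells were depolarized with KCl/CaCl2, and the 400/490 nm emission ratio rise over basal was measured. IC50 came from a four-parameter logistic fit.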

[2] = test system: sound-induced tonic convulsions in DBA/2 mice; experiment: Audiogenic seizure model in DBA/2 mice; assay type: in vivo; details: Mus musculus, protected/tested, read-out: Number of Mice Protected From Tonic Convulsions (converted); for responders at 30 mg/kg: 30 mg/Kg IV; for responders at 3 mg/kg: 3 mg/Kg IV; for responders at 10 mg/kg: 10 mg/Kg IV
Experimental: Audiogenic Seizure Model in DBA/2 Mice
A compound of the present invention was dissolved in water using 10% (weight/volume) Emulphor (GAF Corp., Wayne, N.J.) surfactant. Substances were administered by intravenous injection into the retro-orbital venous sinus of male mice (3-4 weeks old, Jackson Laboratories, Bar Harbour, Me.). All testing was preformed 15 minutes or 45 minutes after drug injection. Immediately before anticonvulsant testing, mice were placed upon a wire mesh, 4 inches square suspended from a steel rod. The square was slowly inverted through 180 degrees and mice observed for 30 seconds. Any mouse falling from the wire mesh was scored as ataxic.
Mice were placed into an enclosed acrylic plastic chamber (21 cm height, approximately 30 cm diameter) with a high-frequency speaker (4 cm diameter) in the center of the top lid. An audio signal generator (Protek model B-810) was used to produce a continuous sinusoidal tone that Was swept linearly in frequency between 8 kHz and 16 kHz once each 10 msec. The average sound pressure level (SPL) during stimulation was approximately 100 dB at the floor of the chamber. Mice were placed within the chamber and allowed to acclimatize for 1 minute. DBA/2 mice in the vehicle-treated group responded to the sound stimulus (applied until tonic extension occurred, or for a maximum of 60 sec) with a characteristic seizure sequence consisting of wild running followed by clonic seizures, and later by tonic extension, and finally by respiratory arrest and death in 80% or more of the mice. In vehicle-treated mice, the entire sequence of seizures to respiratory arrest lasts approximately 15-20 seconds.
The incidence of all the seizure phases in the drug-treated and vehicle-treated mice was recorded, and the occurrence of tonic seizures were used for calculating anticonvulsant ED50 values by probit analysis. Mice were used only once for testing at each time and dose point.

[3] = 5 μM nitrendipine present, read-out: IMR32 IC50
[4] = estimated from two data points, read-out: IMR32 IC50 (estimated IC50 values based on two data points)

Row | IC50 [1, 3] | Compound | responders at 30 mg/kg ([2]; 0.25 h, 15 min posttreatment) | responders at 30 mg/kg ([2]; 0.75 h, 45 min posttreatment) | further results
1 | 850 nM | CC(C)[C@H](NC(=O)N1CCCCCC1)C(=O)N1CCN(C(c2ccc(F)cc2)c2ccc(F)cc2)CC1 [Example 33, (S)-Azepane-1-carboxylic acid (1-{4-[bis-(4-fluoro-phenyl)-methyl]-piperazine-1-carbonyl}-2-methyl-propyl)-amide] | 0% | 0% | 
2 | 460 nM | CC(C)C[C@H](NCC1CCCCC1)C(=O)NCCCC(c1ccc(F)cc1)c1ccc(F)cc1 [Example 8, (S)-2-(Cyclohexylmethyl-amino)-4-methyl-pentanoic acid [4,4-bis-(4-fluoro-phenyl)-butyl]-amide monohydrochloride] | 100% | 100% | responders at 3 mg/kg ([2]; 0.25 h, 15 min posttreatment): 0%; responders at 10 mg/kg ([2]; 0.25 h, 15 min posttreatment): 80%; responders at 3 mg/kg ([2]; 0.75 h, 45 min posttreatment): 0%; responders at 10 mg/kg ([2]; 0.75 h, 45 min posttreatment): 40%
3 | 2400 nM | CC(C)C[C@H](N)C(=O)NCCCC(c1ccc(F)cc1)c1ccc(F)cc1 [Example 7, (S)-2-Amino-4-methyl-pentanoic acid [4,4-bis-(4-fluoro-phenyl)-butyl]-amide monohydrochloride] | 80% | 80% | 
4 | 280 nM | CC(C)=CCN[C@@H](CC(C)C)C(=O)NCCCC(c1ccc(F)cc1)c1ccc(F)cc1 [Example 9, (S)-4-Methyl-2-(3-methyl-but-2-enylamino)-pentanoic acid [4,4-bis-(4-fluoro-phenyl)-butyl]-amide monohydrochloride] | 100% | 100% | responders at 3 mg/kg ([2]; 0.25 h, 15 min posttreatment): 60%; responders at 10 mg/kg ([2]; 0.25 h, 15 min posttreatment): 100%; responders at 3 mg/kg ([2]; 0.75 h, 45 min posttreatment): 0%; responders at 10 mg/kg ([2]; 0.75 h, 45 min posttreatment): 60%
5 | 840 nM | CC(C)C[C@@H](C(=O)NCCCC(c1ccc(F)cc1)c1ccc(F)cc1)N(C)Cc1ccc(C(C)(C)C)cc1.Cl [Example 14, (S)-2-[(4-tert-Butyl-benzyl)-methyl-amino]-4-methyl-pentanoic acid [4,4-bis-(4-fluoro-phenyl)-butyl]-amide monohydrochloride] |  |  | 
6 |  | CC(C)C[C@@H](C(=O)N1CCN(C(c2ccc(F)cc2)c2ccc(F)cc2)CC1)N(C)C [Example 39, (S)-1-{4-[Bis-(4-fluoro-phenyl)-methyl]-piperazin-1-yl}-2-dimethylamino-4-methyl-pentan-1-one dihydrochloride] |  |  | IC50 [1, 4]: 3500 nM
7 | 480 nM | CC(C)C[C@H](NC(=O)N1CCCCCC1)C(=O)N1CCN(C(c2ccc(F)cc2)c2ccc(F)cc2)CC1 [Example 31, (S)-Azepane-1-carboxylic acid (1-{4-[bis-(4-fluoro-phenyl)-methyl]-piperazine-1-carbonyl}-3-methyl-butyl)-amide] | 0% | 0% | 
8 |  | CC(C)CCN(C)[C@@H](CC(C)C)C(=O)NCCCC(c1ccc(F)cc1)c1ccc(F)cc1 [Example 28, (S)-4-Methyl-2-[methyl-(3-methyl-butyl)-amino]-pentanoic acid [4,4-bis-(4-fluoro-phenyl)-butyl]-amide monohydrochloride] | 80% | 100% | inhibition at 1 µM ([1]; IMR-32, IMR-32 cells, at 1 μM, read-out: IMR32 % blockage at 1 μM): 92%; inhibition at 10 µM ([1]; IMR-32, IMR-32 cells, at 10 μM, read-out: IMR32 % blockage at 10 μM): 97%
9 |  | CC(C)C[C@@H](CN1CCN(C(c2ccc(F)cc2)c2ccc(F)cc2)CC1)NC(=O)N1CCCCCC1 [Example 36, (S)-Azepane-1-carboxylic acid (1-{4-[bis-(4-fluoro-phenyl)-methyl]-piperazin-1-ylmethyl}-3-methyl-butyl)-amide] |  |  | IC50 [1, 4]: 500 nM

Row | Compound | IC50 [1, 3] | responders at 30 mg/kg ([2]; 0.25 h, 15 min posttreatment) | responders at 30 mg/kg ([2]; 0.75 h, 45 min posttreatment) | further results
10 | CN[C@@H](CC(C)C)C(=O)NCCCC(c1ccc(F)cc1)c1ccc(F)cc1 [Example 12, (S)-4-Methyl-2-methylamino-pentanoic acid [4,4-bis-(4-fluoro-phenyl)-butyl]-amide monohydrochloride] | 1430 nM | 100% | 80% | 
